{"source": "patent US9616107B2", "about": "“Therapy for kidney disease and/or heart failure” (priority 2011, dated 2017)", "assay": "Toxicology study of VD in canines: 5-day continuous subcutaneous infusion, plasma VD by radioimmunoassay, clinical observations", "format": "in vivo", "settings": "for half-life / AUC(0-t) / AUC / Tmax / Cmax / t1/2: beagle; for AUC(0-t): data through 122 hours; for average steady state peak concentrations: n=1 per sex", "procedure": "VD was administered to canines via a subcutaneous delivery route. The dosing was performed at a high level to assess the toxicity of VD and to determine if a lethal dosing amount of the VD can be reached by subcutaneous administration.\nVD was administered subcutaneously to canines using a Medtronic Paradigm® infusion pump (model MMT772) over a period of 5 days. VD was obtained as an acetate salt (VD-acetate) from Bachem (lot 2502022) and prepared in Tris/Glycerin/m-cresol buffer at a concentration of 15 mg/mL. The Tris/Glycerin/m-cresol buffer was prepared by mixing 16.0 g glycerol, 6.05 g tris-(hydroxymethyl)-aminomethane (“Tris”), 2.50 g meta cresol in a 1.00 L volumetric flask. Approximately 900 mL nanopure water was added to the volumetric flask and the mixture was magnetically stirred to reach complete dissolution. 4 normal hydrochloric acid was used to adjust pH to […] at 25° C.\nVD was administered to one male and one female beagle canine at varying dosing amounts. Each canine received a first dosage level for 5 consecutive days followed by a 2-day washout period. Then, the same canines received a second, higher dosage level for an additional 5 consecutive days.\nPrior to the beginning of dosing with VD (Day 0), the canines were placed in a sling and the dose site on the dorsolateral thorax was shaved. The shaved area was swabbed with 70% isopropyl alcohol and allowed to dry. DuraPrep™ (3M) was then applied and allowed to dry for 3 minutes. The catheter of the infusion set (Medtronic Silhouette Paradigm® Infusion Set MMT-378) was placed subcutaneously and perpendicular to the spine, and attached to the skin. The extension set was then attached to a previously weighed reservoir filled with VD at a concentration of 15 mg/mL in the Tris/Glycerin/m-cresol buffer. The reservoir was inserted into the pump located in a jacket pocket and dosing was commenced. The jacket was then secured and a collar was placed on each canine. Every day during the 5-day period, the reservoirs were exchanged with new filled reservoirs at approximately the same time each day.\nAt the end of the first 5-day dosing period, the infusion sets and jackets were removed, the area where the catheter was placed was marked, and the animals were allowed a 2-day washout period prior to the next treatment. For the next treatment at the second dosing amount, a new infusion site was chosen on the skin, and the pump was prepared as before.\nThe daily dosage level during the first 5-day period (Group 1) was 1.44 mg/(kg·day) (or 1000 ng/(kg·min)) for each canine corresponding with a dosage volume of 0.096 ml/(kg·day). The total dose delivered to each canine over the first 5-day period was 7.20 mg/kg. […] Following the 2-day washout period, the daily dosage level was increased to 2.88 mg/(kg·day) (or 2000 ng/(kg·min)) for each canine corresponding with a dosage volume of 0.192 ml/(kg·day) during the second 5-day period (Group 2). The total dose delivered to each canine over the second 5-day period was 14.4 mg/kg.\nAll animals were observed twice daily during the first and second 5-day periods for mortality and moribund appearance. Clinical examinations were also performed daily for the animals after dosing began. Detailed physical examinations were conducted on Day 0 prior to dosing and on study Day 5 after the pumps and jackets were removed from the canines. Individual body weights were recorded twice weekly during a 7-day pretest period, on study Day 0 prior to dosing and study Day 5 after the pumps and jackets were removed from the canines. Body weights and body weight changes were calculated for the corresponding intervals. Individual food consumption was recorded daily during the pretest period and throughout the study.\nBlood samples for determination of plasma drug concentration were collected at 2, 4, 24 and 96 hours after the beginning of infusion, immediately prior to the end of infusion on Day 5, and 0.5, 1, 1.5, and 2 hours after the end of dosing. […]", "note": "Entries after “also recorded” stand apart in the source; their conditions may differ. Read-outs that look alike come from different tables or passages of the source. Marks after values point to notes of the source that are not given here. Ends that are not written are not given here."}
{"sequence": "EVVPPQVLSEPNEEAGAALSPLPEVPPWTGEVSPAQR [VD, Vessel Dilator]", "values": [{"measurement": "half-life", "setting": "dog, in vivo, t1/2", "value": 0.735, "unit": "h"}, {"measurement": "AUC(0-t)", "setting": "dog, in vivo, female canine, 1.44 mg/kg/day (7.20 mg/kg), SC infusion 5 days", "value": 34700, "unit": "ng·h/mL"}, {"measurement": "AUC", "setting": "dog, in vivo, female canine, 1.44 mg/kg/day (7.20 mg/kg), SC infusion 5 days, τ 120 hours, read-out: AUCτ (AUGτ [sic])", "value": 34400, "unit": "ng·h/mL"}, {"measurement": "Tmax", "setting": "dog, in vivo, female canine, 1.44 mg/kg/day (7.20 mg/kg), SC infusion 5 days, hours after start of infusion, read-out: Tmax", "value": 96, "unit": "h"}, {"measurement": "AUC", "setting": "dog, in vivo, female canine, 2.88 mg/(kg·day), maximum tolerated dose not determined, read-out: AUC that a maximum tolerated dose would exceed", "value": "> 63300", "unit": "ng·h/mL"}, {"measurement": "Cmax", "setting": "dog, in vivo, female canine, 2.88 mg/(kg·day), maximum tolerated dose not determined, read-out: Cmax that a maximum tolerated dose would exceed", "value": "> 579", "unit": "ng/mL"}, {"measurement": "AUC(0-t)", "setting": "dog, in vivo, female canine, 2.88 mg/kg/day (14.4 mg/kg), SC infusion 5 days", "value": 64100, "unit": "ng·h/mL"}, {"measurement": "AUC", "setting": "dog, in vivo, female canine, 2.88 mg/kg/day (14.4 mg/kg), SC infusion 5 days, τ 120 hours, read-out: AUCτ (AUGτ [sic])", "value": 63300, "unit": "ng·h/mL"}, {"measurement": "Tmax", "setting": "dog, in vivo, female canine, 2.88 mg/kg/day (14.4 mg/kg), SC infusion 5 days, hours after start of infusion, read-out: Tmax", "value": 96, "unit": "h"}, {"measurement": "Cmax", "setting": "dog, in vivo, female canine, 2.88 mg/kg/day (14.4 mg/kg), SC infusion 5 days, read-out: Cmax", "value": 579, "unit": "ng/mL"}, {"measurement": "Tmax", "setting": "dog, in vivo, female canine, both dosages, after start of infusion, read-out: Tmax", "value": "~96", "unit": "h"}, {"measurement": "AUC(0-t)", "setting": "dog, in vivo, male canine, 1.44 mg/kg/day (7.20 mg/kg), SC infusion 5 days", "value": 31200, "unit": "ng·h/mL"}, {"measurement": "AUC", "setting": "dog, in vivo, male canine, 1.44 mg/kg/day (7.20 mg/kg), SC infusion 5 days, τ 120 hours, read-out: AUCτ (AUGτ [sic])", "value": 30800, "unit": "ng·h/mL"}, {"measurement": "AUC", "setting": "dog, in vivo, male canine, 2.88 mg/(kg·day), maximum tolerated dose not determined, read-out: AUC that a maximum tolerated dose would exceed", "value": "> 58200", "unit": "ng·h/mL"}, {"measurement": "Cmax", "setting": "dog, in vivo, male canine, 2.88 mg/(kg·day), maximum tolerated dose not determined, read-out: Cmax that a maximum tolerated dose would exceed", "value": "> 655", "unit": "ng/mL"}, {"measurement": "AUC(0-t)", "setting": "dog, in vivo, male canine, 2.88 mg/kg/day (14.4 mg/kg), SC infusion 5 days", "value": 58900, "unit": "ng·h/mL"}, {"measurement": "AUC", "setting": "dog, in vivo, male canine, 2.88 mg/kg/day (14.4 mg/kg), SC infusion 5 days, τ 120 hours, read-out: AUCτ (AUGτ [sic])", "value": 58200, "unit": "ng·h/mL"}, {"measurement": "survival and adverse effects on weight, food consumption or behavior", "setting": "both canines, 1.44 then 2.88 mg/(kg·day), 5 days each", "value": "survived to the scheduled study termination without appreciable adverse effects on weight, food consumption or behavior"}, {"measurement": "half-life", "setting": "both sexes, dog, in vivo, calculated half-life for elimination of Vessel Dilator in plasma", "value": "0.7 to 1.2", "unit": "h"}, {"measurement": "Tmax", "setting": "both sexes, dog, in vivo, sc", "value": 108, "unit": "h"}, {"measurement": "average steady state peak concentrations", "setting": "canines, 1000 ng/kg·min constant SC dosing 5 days", "value": "257 to 287", "unit": "ng/mL"}, {"measurement": "average steady state peak concentrations", "setting": "canines, 2000 ng/kg·min constant SC dosing 5 days", "value": "485 to 527", "unit": "ng/mL"}, {"measurement": "tolerance and toxicological effects of continuous subcutaneous infusion", "setting": "canines, up to 2.88 mg/(kg·day)", "value": "high tolerance and no noticeable toxicological effects; also recorded: well-tolerated"}, {"measurement": "maximum tolerated dose for prolonged subcutaneous administration", "setting": "canines, expected", "value": "> 2000", "unit": "ng/kg·min"}, {"measurement": "effects on body weight", "setting": "dog, in vivo", "value": "no effects on body weight"}, {"measurement": "effects related to food consumption", "setting": "dog, in vivo", "value": "no effects related to food consumption"}, {"measurement": "fluctuation of plasma concentrations of VD", "setting": "dog, in vivo", "value": "approximately 30%"}, {"measurement": "potential VD administration-related clinical observations", "setting": "dog, in vivo", "value": "reddened ears and/or reddened gums"}, {"measurement": "systemic exposure to VD (AUCτ and Cmax) versus dosage", "setting": "dog, in vivo, 2.88 mg/kg/day", "value": "increased proportionally with the increase in dosage"}, {"measurement": "plasma concentration up to which no toxicity issues were shown", "setting": "dogs, continuous five day subcutaneous infusion", "value": "~500", "unit": "ng/mL"}, {"measurement": "t1/2", "setting": "female, dog, in vivo, sc", "value": "1.21† h"}, {"measurement": "half-life", "setting": "female, dog, in vivo, sc, t1/2", "value": 0.801, "unit": "h"}, {"measurement": "Tmax", "setting": "male, dog, in vivo", "value": 120, "unit": "h"}, {"measurement": "Tmax", "setting": "male, dog, in vivo, sc", "value": 120, "unit": "h"}, {"measurement": "t1/2", "setting": "male, dog, in vivo, sc", "value": "0.793† h"}, {"measurement": "half-life", "setting": "male, dog, in vivo, sc, t1/2", "value": 0.735, "unit": "h"}]}
